# Measured values: patent US20230357761A1, “ACTIVATORS OF TYPE III CAS PROTEINS” (THE REGENTS OF THE UNIVERSITY OF CALIFORNIA, priority 2020, published 2023)
# [5mC] = 5-methylcytosine; d = 2'-deoxy (DNA); r = 2'-OH (RNA); f = 2'-fluoro
# Columns and labels:
# [1] = target: T1, T. thermophilus Csm6 (TtCsm6) (Thermus thermophilus, UniProt Q53W17); assay: Cas13-coupled TtCsm6 activation assay, fluorescence of cleaved polyC RNA reporter; assay type: biochemical; conditions: for kinetics of development of fluorescent signal over time / duration and level of fluorescent signal: FIG. 2; for kinetics of development of fluorescent signal over time: 20 nM Cas13 RNP, 100 nM Csm6, 100 pM Cas13 activator [R010], 200 nM C5 reporter, 2 μM Type III accessory nuclease activator, IGI buffer, versus unmodified NCR142; for duration and level of fluorescent signal: same reaction as E1, versus unmodified NCR142, which was used at 4 times the concentration
# T1 sequence (Q53W17 1-464): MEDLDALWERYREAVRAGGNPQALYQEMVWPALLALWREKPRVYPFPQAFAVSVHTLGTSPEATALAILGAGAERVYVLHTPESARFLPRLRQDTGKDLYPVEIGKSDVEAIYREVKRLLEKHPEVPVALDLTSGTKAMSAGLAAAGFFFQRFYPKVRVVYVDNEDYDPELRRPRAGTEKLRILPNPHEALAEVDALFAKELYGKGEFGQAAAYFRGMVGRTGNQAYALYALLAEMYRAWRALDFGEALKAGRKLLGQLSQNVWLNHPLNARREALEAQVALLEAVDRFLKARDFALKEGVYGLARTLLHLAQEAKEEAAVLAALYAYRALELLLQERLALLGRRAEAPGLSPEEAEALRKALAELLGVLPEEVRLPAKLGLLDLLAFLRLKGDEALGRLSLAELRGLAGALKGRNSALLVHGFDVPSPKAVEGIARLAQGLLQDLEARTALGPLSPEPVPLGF
# Experimental: To test the impact of modifications of the Type III accessory nuclease activators, the following system was used (see FIG. 1). Cas13 ribonucleoprotein complexes (RNP) were assembled using LbuCas13 protein and guides at room temperature at a concentration of 0.5 μM Cas13 in 1× reaction buffer.
# In some experiments, the 1× reaction buffer comprised 20 mM HEPES, pH 6.8, 50 mM KCl, 5 mM MgCl2, 100 μg/mL BSA, 0.01% Igepal CA, 2% glycerol (“IGI buffer”) while in other experiments, the 1× reaction buffer comprised 20 mM HEPES, pH 6.8, 50 mM KCl, 5 mM MgCl2, 5% glycerol (“Ott buffer”). Once assembled, the RNPs were diluted with 1× reaction buffer to 10× the final [RNP] in the reaction (200 nM for 20 nM final concentration). Concentrated T. thermophilus Csm6 (TtCsm6) protein was also diluted to 10× the concentration (1 μM for 100 nM final concentration) in 1× reaction buffer. The activator mix was assembled on ice, containing 20× concentration of the Cas13 activator, 20× concentration of the secondary Csm6 activator, and 10× of a polyC RNA reporter (6-FAM-CCCCC-Iowa Black®, Integrated DNA Technologies) in 1× reaction buffer. The proteins were then mixed together to make an RNP/protein master mix in 1× reaction buffer. Volumes to use were determined such that 15 μL of this master mix was added to 5 μL of the activator mix for a final volume of 20 μL for the reaction. Reactions were performed in triplicate. The RNP master mix was equilibrated at room temperature for 10-15 minutes. 15 μL of the RNP/protein master mix was then added to 5 μL of the activator master mix (pre-loaded into 384-well low-volume flat-bottom black assay plate, Corning) to start the reaction. Fluorescence of the unquenched 6-FAM group (excitation 485 nm, emission 535 or 528 nm) was monitored over 1-2 hours (one reading every 1.5 or 2 min) in a Tecan or Biotek Cytation 5 plate reader at 37° C. An increase in fluorescence correlates with dequenching of the FAM due to RNA cleavage by TtCsm6.
# NCR142, NCR372, NCR373 and NCR374 were compared in the system described above. Specifically, 20 nM Cas13 RNP (assembled at a ratio of 2:1 guide to protein), 100 nM Csm6, 100 pM Cas13 activator [R010]], 200 nM C5 RNA reporter (i.e., 5′-6-FAM-CCCCC-Iowa Black-3′, Integrated DNA Technologies), 2 μM Type III accessory nuclease activator, 1×IGI buffer were used, with the experiment monitored on a Tecan Spark.
# Next, several different 2′-deoxy modified Type III accessory nuclease activators were compared where the activators had 1 to 3 modifications and the modifications were in different locations (see Table 3 and FIG. 4). In these experiments, 20 nM Cas13 RNPs using a guide, GJK073, targeting a short synthetic RNA target, GJK075, was used (see Table 2). In addition, 100 nM Csm6 was used, plus 0 to 200 pM Cas13 activator (GJK075), 2 μM Csm6 activator, 200 nM C5 reporter, and Cas13 1× buffer (IGI). The experiments were carried out at 37° C. in low volume flat-bottom black plates and fluorescence was measured on a Biotek Cytation 5.
# The NCR497 activator was also tested over a range of Type III accessory nuclease activator concentrations and Type VI nuclease activator concentrations. In these experiments, 20 nM Cas13 RNPs comprising the NCR316 guide at a ratio of 2:1 protein to guide were used. In addition, 100 nM TtCsm6 and 200 nM C5 reporter was used where the reaction was carried out in low-volume, flat-bottom plates at 37° C. analyzed on a Biotek citation 5. Type VI nuclease activator (aNCR316) was used at 2 pM or 200 pM concentrations.
# A Type III accessory nuclease activator comprising a single 2′-fluoro modified nucleotide was also modified to create an activator with a single cleavage location for the Cas13 trans nuclease activity. In this Type III accessory nuclease activator, the poly U stretch was replaced with a single U nucleotide followed by C nucleotides. […]
# [2] = target: T2, Csm6 (Thermus thermophilus, UniProt Q53W17); assay: Sensitivity of Cas13 RNA detection with and without Csm6 and its Type III accessory nuclease activator; assay type: biochemical, T. thermophilus; conditions: 37° C.
# T2 sequence (Q53W17 1-464): T1 sequence (Q53W17 1-464)
# Experimental: In some experiments, the 1× reaction buffer comprised 20 mM HEPES, pH 6.8, 50 mM KCl, 5 mM MgCl2, 100 μg/mL BSA, 0.01% Igepal CA, 2% glycerol (“IGI buffer”) while in other experiments, the 1× reaction buffer comprised 20 mM HEPES, pH 6.8, 50 mM KCl, 5 mM MgCl2, 5% glycerol (“Ott buffer”). Once assembled, the RNPs were diluted with 1× reaction buffer to 10× the final [RNP] in the reaction (200 nM for 20 nM final concentration). Concentrated T. thermophilus Csm6 (TtCsm6) protein was also diluted to 10× the concentration (1 μM for 100 nM final concentration) in 1× reaction buffer. The activator mix was assembled on ice, containing 20× concentration of the Cas13 activator, 20× concentration of the secondary Csm6 activator, and 10× of a polyC RNA reporter (6-FAM-CCCCC-Iowa Black®, Integrated DNA Technologies) in 1× reaction buffer. The proteins were then mixed together to make an RNP/protein master mix in 1× reaction buffer. Volumes to use were determined such that 15 μL of this master mix was added to 5 μL of the activator mix for a final volume of 20 μL for the reaction. […] Fluorescence of the unquenched 6-FAM group (excitation 485 nm, emission 535 or 528 nm) was monitored over 1-2 hours (one reading every 1.5 or 2 min) in a Tecan or Biotek Cytation 5 plate reader at 37° C. An increase in fluorescence correlates with dequenching of the FAM due to RNA cleavage by TtCsm6. […]
substance,measurement,setting,value
"dAdAdAAUUUUUU (AAAAUUUUUU; sugars from the 5' end d3 r7, backbone not given here) [NCR373]",kinetics of development of fluorescent signal over time,[1],slower kinetics than the unmodified Type III accessory nuclease activator
same,duration and level of fluorescent signal,[1],longer lived and reached higher levels than the unmodified activator
"AAdAAUUUUUU (AAAAUUUUUU; sugars from the 5' end r2 d1 r7, backbone not given here) [NCR654]","kinetics and signal, 2′-deoxy modified activators","[1]; FIG. 4, guide GJK073, 0 to 200 pM Cas13 activator GJK075, 2 μM Csm6 activator, 37° C., versus unmodified activators",rapid kinetics and were able to achieve a high and stable signal
"AfAAAUUUUUU (AAAAUUUUUU; sugars from the 5' end r1 f1 r8, backbone not given here) [NCR497]",limit of detection of the Cas13 activator,"[2]; 50 nM Cas13 RNP (guides NCR604 and NCR612), 100 nM Csm6, 2 μM NCR497, gblock7 transcript 0-20 pM, Ott buffer",approximately 2 fM
same,increase in sensitivity when Csm6 reagents were added to the Cas13 detection system,"[2]; FIG. 10, 200 nM Cas13 RNP (guide NCR316) alone vs plus 100 nM Csm6 and 2 μM NCR497, aNCR316 200 aM to 200 pM, IGI buffer",100 fold
same,"kinetics, 2′-fluoro modified activators",[1]; FIG. 5,rapid and stable kinetics
same,background signal (0 pM Cas13 activator curves),"[1]; FIG. 5, compared to the 2′-deoxy modified activators",decreased background signal
same,signal in the reaction,"[1]; FIGS. 6 and 7, guide NCR316, 2 pM Type VI nuclease activator aNCR316, versus NCR142 at 2 pM or 200 pM",better signal
"AfAAAUCC (metdC) (metdc) C (AAAAUCCCCC; sugars from the 5' end r1 f1 r5 d2 r1, [5mC] at 8, 9, backbone not given here) [NCR690]",activity of the system,"[1]; FIGS. 8 and 9, activator at 2, 0.2 and 0.1 μM, Cas13 activator at 200 or 2 pM",robust activity
same,background signal,"[1]; FIGS. 8 and 9, compared to NCR497 at the same concentrations",higher background signal compared to the NCR497
"fAfAfAAUUUUUU (AAAAUUUUUU; sugars from the 5' end f3 r7, backbone not given here) [NCR374]",kinetics of development of fluorescent signal over time,[1],slower kinetics than the unmodified Type III accessory nuclease activator
same,duration and level of fluorescent signal,[1],longer lived and reached higher levels than the unmodified activator
